Data set [1] has as its system G544V-mutant LDL receptor. Kind of data set: Cell-based trafficking assay: restoration of glycosylation/trafficking of mutant LDL receptor in CHO cells. Also on record: species or system human. As to conditions: for EC50: CHO cells expressing G544V-mutant LDL receptor, 2 hours at 37° C., value ± standard error, read-out: EC50, acquisition of mutant LDL receptor glycosylation. How it is done:
(§1) T-Rex-CHO-K1 cloned cell lines expressing wild-type and mutant LDL receptor were cultured as described in Sorensen et al. (2006) and Tveten et al. (2007), and according to the manufacturer's protocols (Thermo Fisher Scientific). The expression in CHO cells of G544V-mutant or wildtype LDL receptor protein was induced with 1 μg/mL tetracycline for 24 h prior to experiments with 4-PBA or 4-PBA analogs (Tveten et al. (2007)). To compare pharmacological potency of 4-PBA analogs, cells were incubated with the compounds for 2 hours at 37° C. in 12-well 22 mm plates (Corning Costar #3513). For experiments concerning the extracellular secretion of GRP94 (FIG. 5), the incubations with 4-PBA were extended to 24 hours. Cells were broken in lysis buffer (1% (v/v) Triton X-100, 150 mM NaCl, 10 mM EDTA, 50 mM Tris-HCl pH 7.5) and cleared by centrifugation (15,000 g for 15 minutes). Cellular protein concentration was measured using “Protein Assay Kit II” (Bio-Rad) with bovine serum albumin as standard. Lysates were added to Laemmli sample buffer (New England BioLabs) containing 130 mM dithiothreitol and heated for 15 min at 55° C. Cell medium (containing secreted proteins) was added to Laemmli sample buffer containing 5% β-mercaptoethanol and boiled for 5 min. Samples were run on 4-15% Tris/HCl Criterion gels (Bio-Rad) followed by immunoblotting.
Chemiluminescence signals from western blots for the glycosylated (160 kDa) form of G544V mutant LDL receptor were quantified as a percentage of total LDL receptor protein (glycosylated+unglycosylated bands). Data at high concentrations of 4-PBA analogs, which show inhibition of LDL receptor trafficking, were omitted. Data from individual experiments were normalized (to obtain maximal response=100%), so that data from replicate experiments (n=4-5) could be averaged. Logistic fitting to the dose-response data was carried out with program Ultrafit (Elsevier Biosoft). […] Data from fluorescence polarization titrations (FIGS. 6(E)-6(G)) were analyzed with Ultrafit, and IC50 values were determined from plots using nonlinear curve fitting. […] IC50 values were converted to true affinities, Ki, using the approach of (Nikolovska-Coleska et al., 2004), and these are used in the scatter plot, FIG. 6(H).
A system comprising a CHO (T-Rex-CHO-K1) cell clone expressing the G544V-mutant human LDL receptor under a tetracycline-inducible promoter was used (see General Methods) to measure the packaging of resident proteins and a misfolded mutant LDL receptor into COPII vesicles budded from permeabilized cells. The G544V-mutant human LDL receptor is a naturally occurring transport-defective (class 2) mutant LDL receptor with a point mutation in the luminal β-propeller domain that causes ER trapping with chaperone association. 4-PBA has been show to restore transportation of G544V-mutant human LDL receptor to the plasma membrane (Tveten et al. (2007)).
CHO cells expressing G544V-mutant LDL receptor were incubated with the indicated concentrations of 4-PBA analogs for 2 hours at 37° C. Cell lysates were analyzed by immunoblotting for the appearance of 160 kDa mature glycosylated LDL receptor (labeling indicates the position of 160 kDa mature glycosylated and 120 kDa precursor forms of LDL receptor). Gamma correction was applied to the immunoblot images.

Another data set deals with T1, human Sec24a (Homo sapiens, UniProt O95486).
T1 construct: His6 (TEV-cleavable) (N, cleaved yes); made in house; host or cells: High Five insect cells (baculovirus)
T1 sequence (O95486 341-1093): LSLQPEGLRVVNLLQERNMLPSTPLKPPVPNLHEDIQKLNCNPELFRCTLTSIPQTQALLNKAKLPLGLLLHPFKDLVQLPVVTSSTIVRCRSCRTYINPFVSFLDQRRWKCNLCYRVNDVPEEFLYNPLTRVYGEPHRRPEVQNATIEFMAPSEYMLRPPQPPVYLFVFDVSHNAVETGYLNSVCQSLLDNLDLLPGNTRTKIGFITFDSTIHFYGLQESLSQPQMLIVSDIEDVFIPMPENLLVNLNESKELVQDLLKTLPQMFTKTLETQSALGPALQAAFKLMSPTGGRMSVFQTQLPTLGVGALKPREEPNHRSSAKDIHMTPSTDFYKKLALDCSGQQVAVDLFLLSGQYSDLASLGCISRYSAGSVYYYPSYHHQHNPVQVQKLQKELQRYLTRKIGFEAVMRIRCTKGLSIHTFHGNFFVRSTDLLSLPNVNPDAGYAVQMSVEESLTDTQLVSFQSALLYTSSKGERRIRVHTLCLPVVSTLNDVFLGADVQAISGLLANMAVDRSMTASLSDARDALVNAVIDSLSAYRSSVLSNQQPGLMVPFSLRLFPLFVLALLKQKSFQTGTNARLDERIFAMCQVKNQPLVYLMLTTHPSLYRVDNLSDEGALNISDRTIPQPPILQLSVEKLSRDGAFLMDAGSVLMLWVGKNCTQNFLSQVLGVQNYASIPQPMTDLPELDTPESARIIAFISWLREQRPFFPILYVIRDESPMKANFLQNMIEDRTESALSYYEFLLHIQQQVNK
The data set can be described thus: Fluorescence polarization assay: displacement of 5-Fam-[…] from Sec24a. It is filed as binding. As to conditions: fluorescence polarization at 22° C.; value ± standard error; read-out: IC50, displacement of fluorescent probe 5-Fam-QIYTDIEANR from Sec24a. For orientation: In fluorescence polarisation assays a small probe gives low polarisation when free and higher when bound to something large.

Data set [2] concerns the target T2, COPII coat proteins (Sec23a/24d) (Homo sapiens, UniProt O94855).
T2 construct: Sec23a/Sec24d (full-length protein) for COPII budding assays; made in house; host or cells: High Five insect cells (Sec23a/24d, Sec13a/31a); E. coli BL21(DE3) (Sar1a); added to digitonin-permeabilized T-Rex-CHO-K1 cells
Kind of data set: In vitro COPII budding assay with permeabilized CHO cells. It is filed as biochemical, H. sapiens. As to conditions: 10 mM 4-PBA. How it is done: In vitro COPII budding reactions used permeabilized cells prepared from the T-Rex-CHO-K1 parent line and from the clone that expresses mutant LDL receptor. Permeabilization was carried out as described in Mancias and Goldberg (2008) with modifications. Two culture dishes (150 mm) of cells were prepared with cells at no greater than 60% confluence. Cells were washed with 20 ml PBS at 37° C. and then trypsinized with 2 ml of Trypsin-EDTA (0.05%, Gibco) for 1 min at 37° C.; 100 μl of Soybean Trypsin Inhibitor (2 mg/ml; Sigma) was added to each culture plate. Next, 5.5 ml ice-cold KHM buffer (110 mM KOAc, 20 mM Hepes pH 7.2, 2 mM magnesium acetate) was added per plate, and cells were transferred to a 15 ml Falcon tube and pelleted gently (250 g for 3 min at 4° C.). The supernatant was aspirated and the cells re-suspended in 6 ml ice-cold KHM buffer. To permeabilize the cells, 6 μl digitonin stock solution (40 mg/ml in dimethyl sulfoxide) was added, cells were mixed by inversion and incubated on ice for 5 minutes. To terminate permeabilization, cells were diluted to 14 ml with KHM buffer and immediately pelleted at 250 g for 3 min at 4° C. […] The protein concentration was measured using protein assay kit (Bio-Rad) with BSA as standard; routinely, the measurement is in the range 4-5 mg/ml. […]

Another data set relates to GRP94. Format: cell-based. The protocol:
as §1
[…] The presence of KDEL tagged (SEQ ID NO: 3) luminal chaperone GRP94 inside and outside cells was measured.

The next data set concerns the target T3, Sec23a/Sec24a⋅Sec22b (Homo sapiens, UniProt O95486).
T3 construct: His6 (TEV-cleavable) (N, cleaved yes); made in house; host or cells: High Five insect cells (Sec23a/Sec24a); E. coli (Sec22b)
The data set can be described thus: Crystal soaking and X-ray difference Fourier maps. It is filed as binding. As to conditions: crystals soaked at 1, 15 and 50 mM 4-PBA. The protocol:
The Sec23a/Sec24a⋅Sec22b complex was crystallized as described in Mancias and Goldberg (2007) from a solution comprising 10% (w/v) PEG 4000, 500 mM Na acetate and 50 mM Tris-HCl pH 7.9. Crystals were transferred into a soaking buffer of 10% (w/v) PEG 4000, 600 mM NaCl, 50 mM Tris-HCl buffer, pH 7.9. Either 4-PBA (0-50 mM) or 5 mM ΦC signal peptide was added to the crystal containing solution, and the ligand soaking proceeded for five hours at 22° C. Crystals were then transferred to an equivalent ligand-containing buffer with additional 24% ethylene glycol cryo-protectant, and were flash frozen in liquid nitrogen. Crystals treated in this manner diffracted synchrotron X-rays to 2.5-2.8 Å resolution.
X-ray diffraction data were collected at 0.979 Å wavelength on beamline ID-24C or ID-24E of the Advanced Photon Source, Argonne National Laboratory. Data were processed with the program HKL2000 (Otwinowski and Minor (1997); see Tables 1 and 2). Structure refinement was carried out using Phenix (Adams et al. (2010)), initially by rigid-body improvement, followed by positional refinement, based on the published coordinates of Sec23a/Sec24a⋅Sec22b (PDB 2NUT; Mancias and Goldberg (2007)). Models for […] signal peptides or 4-PBA were not included in refinements prior to the creation of FIG. 1, to eliminate potential phase bias. […]

Each structure is given as a SMILES string. Values joined by “and” are separate entries in the source; they are usually repeats but may differ in a detail not shown here. Equal entries are not always repeated.

T2 sequence (O94855 whole entry): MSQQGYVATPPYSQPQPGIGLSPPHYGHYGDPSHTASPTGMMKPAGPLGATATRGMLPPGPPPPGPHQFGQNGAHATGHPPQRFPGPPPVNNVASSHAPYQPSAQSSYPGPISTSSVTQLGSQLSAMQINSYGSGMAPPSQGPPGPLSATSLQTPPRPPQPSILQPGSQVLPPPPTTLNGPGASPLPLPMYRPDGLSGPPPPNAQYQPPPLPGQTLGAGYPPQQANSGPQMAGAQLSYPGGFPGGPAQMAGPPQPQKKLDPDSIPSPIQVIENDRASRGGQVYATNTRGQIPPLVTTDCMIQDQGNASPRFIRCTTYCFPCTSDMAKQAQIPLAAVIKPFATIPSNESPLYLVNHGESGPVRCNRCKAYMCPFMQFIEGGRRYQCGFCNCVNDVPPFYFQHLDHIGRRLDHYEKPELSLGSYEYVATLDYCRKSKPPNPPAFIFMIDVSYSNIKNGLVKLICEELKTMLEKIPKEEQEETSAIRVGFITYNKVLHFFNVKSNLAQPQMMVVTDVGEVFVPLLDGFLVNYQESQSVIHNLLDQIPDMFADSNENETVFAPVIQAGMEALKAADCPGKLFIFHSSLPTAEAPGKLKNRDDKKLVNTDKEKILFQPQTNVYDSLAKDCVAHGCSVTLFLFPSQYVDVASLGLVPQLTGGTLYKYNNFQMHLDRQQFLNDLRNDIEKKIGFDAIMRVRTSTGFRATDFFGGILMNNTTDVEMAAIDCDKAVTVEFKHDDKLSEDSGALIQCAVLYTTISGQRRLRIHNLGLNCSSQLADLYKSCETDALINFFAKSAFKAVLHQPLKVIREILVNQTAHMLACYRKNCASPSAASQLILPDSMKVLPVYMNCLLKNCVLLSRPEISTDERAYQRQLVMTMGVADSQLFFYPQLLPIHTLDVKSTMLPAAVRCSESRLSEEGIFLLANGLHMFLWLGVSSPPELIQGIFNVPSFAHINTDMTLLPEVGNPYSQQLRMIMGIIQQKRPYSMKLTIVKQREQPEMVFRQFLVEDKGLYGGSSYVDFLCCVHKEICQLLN
T2 sequence (Q15436 whole entry partner): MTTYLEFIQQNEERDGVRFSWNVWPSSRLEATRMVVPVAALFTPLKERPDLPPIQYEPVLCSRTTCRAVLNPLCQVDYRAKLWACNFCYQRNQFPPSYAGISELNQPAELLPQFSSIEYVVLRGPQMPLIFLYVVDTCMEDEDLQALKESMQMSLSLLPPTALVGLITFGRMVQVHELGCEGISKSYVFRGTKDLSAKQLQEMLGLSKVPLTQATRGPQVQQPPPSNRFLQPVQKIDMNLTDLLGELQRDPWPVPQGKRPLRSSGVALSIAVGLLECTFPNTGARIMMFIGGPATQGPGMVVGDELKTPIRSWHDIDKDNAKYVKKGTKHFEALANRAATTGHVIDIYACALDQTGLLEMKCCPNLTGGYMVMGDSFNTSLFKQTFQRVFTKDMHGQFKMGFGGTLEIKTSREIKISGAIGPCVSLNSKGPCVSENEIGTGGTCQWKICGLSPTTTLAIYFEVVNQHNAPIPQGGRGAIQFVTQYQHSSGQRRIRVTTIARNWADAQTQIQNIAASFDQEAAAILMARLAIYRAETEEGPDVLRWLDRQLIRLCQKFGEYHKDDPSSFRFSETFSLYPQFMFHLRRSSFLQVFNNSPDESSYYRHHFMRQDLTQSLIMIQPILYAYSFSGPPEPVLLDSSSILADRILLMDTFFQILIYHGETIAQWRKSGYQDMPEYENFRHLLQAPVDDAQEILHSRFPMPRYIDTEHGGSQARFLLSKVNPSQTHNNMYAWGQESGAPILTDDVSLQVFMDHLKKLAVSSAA
T3 sequence (Q15436 whole entry partner, one chain of several): as the sequence (Q15436 whole entry partner) above
T3 sequence (O75396 1-195 partner limits assumed, one chain of several): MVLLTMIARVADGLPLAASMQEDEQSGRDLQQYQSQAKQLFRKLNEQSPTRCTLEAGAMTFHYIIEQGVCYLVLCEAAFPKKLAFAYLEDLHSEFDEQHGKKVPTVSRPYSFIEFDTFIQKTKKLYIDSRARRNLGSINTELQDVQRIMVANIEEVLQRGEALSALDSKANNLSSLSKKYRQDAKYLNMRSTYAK

Consider `O=C(O)CCc1ccccc1` [3-PPA, 3-phenylpropionate], for which, in data set [1], the EC50 – broadly, the midpoint of the concentration-response curve – was 7.48 ± 0.68 mM. Besides, at human Sec24a, the IC50 (usually the concentration that gives 50% inhibition) is 4.11 ± 0.34 mM.
Take `O=C(O)CCCc1ccccc1` [4-PBA, 4-phenylbutyrate]: in data set [1] (10 mM 4-PBA applied to cells), the “restored trafficking of mutant LDL receptor (share of the receptor)” value is reported as ≤ 25%. In addition, in data set [1], the EC50 was 6.37 mM and 6.4 mM. On human Sec24a, the IC50 came to 3.66 ± 0.22 mM. In data set [2], the “packaging of ER residents and mutant LDL receptor into COPII vesicles” value is recorded as “significant enrichment”; the “reduction in the packaging rate of p24 proteins and ERGIC-53” value amounted to 50%. Moreover, the “secretion of GRP94 from CHO cells” value in the data set with GRP94 (0-40 mM 4-PBA, 24 hours) was “dose-dependent”. The cell lysis entry in the data set with GRP94 (45 mM 4-PBA, highest concentration) is given as “cell lysis was detected”. For the same molecule, in the data set on GRP94 (24 hours at 37° C., ER stressed and ER unstressed CHO cells), the “4-PBA concentration of maximal GRP94 secretion” value stood at 20 mM. Moreover, in the data set on GRP94 (CHO cells expressing G544V-mutant LDL receptor, 24 hours at 37° C.), the “4-PBA concentration at which unfolded protein response (UPR) was attenuated” value was 10 to 20 mM. Besides, the “binding to the B site of Sec24a” value at Sec23a/Sec24a⋅Sec22b is on record as “clear evidence for binding”.
On to `O=C(O)CCCCc1ccccc1` [5-PVA, 5-phenylvalerate], for which the concentration giving a half-maximal response (EC50) in data set [1] was determined as 3.36 ± 0.42 mM. The IC50 on human Sec24a stood at 0.99 ± 0.08 mM.
On to `O=C(O)CCCc1ccc(O)cc1` [Hydroxy-PBA, 4-(4-hydroxyphenyl)butyrate], for which, in data set [1], the EC50 was found to be 10.6 ± 0.4 mM. In addition, the IC50 at human Sec24a turned out to be 5.04 ± 0.69 mM.
As for `O=C(O)CCc1ccc(O)cc1` [Hydroxy-PPA, 3-(4-hydroxyphenyl)propionate], the EC50 in data set [1] was 21.7 ± 1.03 mM. Further, on human Sec24a, the half-inhibitory concentration (IC50) was determined as 9.22 ± 0.94 mM.
The matching figures for `COc1ccc(CCCC(=O)O)cc1` [Methoxy-PBA, 4-(4-methoxyphenyl)butyrate]: 8.63 ± 0.98 mM and 4.14 ± 0.7 mM.
The matching figures for `Cc1ccc(CCCC(=O)O)cc1` [Tolyl-BA, 4-(4-tolyl)butyrate]: 4.89 ± 0.24 mM and 1.7 ± 0.16 mM.

For the origin of these results see patent publication US11433040B2, “Methods for modifying endoplasmic reticulum processing of protein” (priority 2017, dated 2022).
